“And” between values parts separate entries of the source, which are not always exact repeats. Equal entries are not always repeated. Marks after values point to notes of the source that are not given here.
How the values were obtained:
[1] = test system: human naive T-cells (PBMC); assay: Primary in vitro sensitization culture of PBMC with or without mitomycin C treated T2 cells, 3H-thymidine uptake; type: cell-based
[2] = test system: human naive T-cells (PBMC); assay: as above; type: cell-based; details: for response of PBMC, FIG. 4: PBMC incubated 6 days with mitomycin C treated T2 cells
Protocol: Preparation of peripheral blood mononuclear cells (PBMC). The research protocol was approved by the Committee on Research Involving Human Subjects of SUNY @ Stony Brook. After informed consent, heparinized blood was obtained by venipuncture. PBMC (peripheral blood mononuclear cells, which include lymphocytes and macrophages/monocytes) were prepared from heparinized peripheral blood by density centrifugation over Ficoll/Hypaque (Pharmacia, Piscataway, N.J.). PBMC were then washed 3 times in serum free wash medium consisting of SMEM (Gibco, Grand Island, N.Y.), and mixed (1:1) with AIM V medium (Gibco). At no time did the PBMC contact animal serum. PBMC were counted, and resuspended at 2×10^6 cells/ml in AIM V medium (Gibco).
Preparation and mitomycin C treatment of T2 cells. T2 cells were cultured in AIM V media (Gibco). Prior to treatment, they were washed, counted, and resuspended in AIM V media at 2×10^6 cells/ml. Mitomycin C (Sigma, St Louis, Mo.) was then added at 30 μg/ml for a 2 hour incubation at 37° C. The T2 cells were then washed 4 times in serum free wash media, counted with trypan blue dye exclusion, and resuspended at 1×10^6 cells/ml.
(§1) In vitro sensitization cultures. Cell cultures were performed in 96 well U-bottom trays (Linbro), with a total volume of 0.2 ml/well of AIM V medium (Gibco). PBMC (2×10^6/ml) were first admixed with equal volumes of T2 cells (1×10^6/ml), and 0.1 ml of the cell mixture was added to each well. Test compounds were then added (0.1 ml/well) at twice the desired final concentration. Each well contained 1×10^5 PBMC, 5×10^4 T2 cells, and the test compound. Control wells contained 0.1 ml of media rather than test compound. The final ratio of PBMC to T2 cells was 2:1. There were 6 replicate wells per group. The 96-well trays were then cultured for 6 days at 37° C. in a 7.5% Co2 incubator. After 6 days, 1 μCi of ^3H-thymidine was added to each well. The wells were harvested 18 hours later, and ^3H-thymidine uptake was determined with a scintillation counter (Pharmacia LKB Nuclear, Gaithersburg, Md.).

[3] = test system: T-cells (E+) and non-T cells (E-); assay: In vitro sensitization culture of purified T-cells / non-T cells mixtures with mitomycin C treated T2 cells, 3H-thymidine uptake; type: cell-based, human; details: for MEAN/SEM (3H-thymidine uptake) / S.I.: T2 cells YES, paraphenylenediamine 10 μg/ml
Protocol: Purification of T-lymphocytes. Sheep erythrocyte receptor positive (E+) T-cells and negative (E−) non-T-cells were isolated by rosetting followed by centrifugation over a Ficoll-Hypaque gradient and lysis of sheep erythrocytes by ammonium chloride as described (38). The (E+) population was greater than 95% CD3+ as determined by cytofluorgraph analysis (below).
as §1
Lymphocyte proliferation assays are generally the result of T-lymphocyte proliferation. It was confirmed that this was also true of this novel in vitro sensitization system. T-cells (70%) were mixed with irradiated (6,000R) non-T cells (30%) for a test of in vitro sensitization to paraphenylenediamine in the presence of mitomycin C treated T2 cells. In a reciprocal group, non-T cells (70%) were mixed with irradiated T-cells (30%). These cell mixtures were added to the culture system, admixed with mitomycin C treated T2 cells, and paraphenylenediamine. […] The T2 cells are not functioning as antigen presenting cells (which is to be expected since the T2 cells lack antigen presenting Major Histocompatibility Complex antigens HLA-DR and HLA-A,B,C), but rather function as accessory cells.

[4] = PBMC from 4 donors, 6 days with mitomycin C treated T2 cells, each compound 3.3 μM to 60 μM
[5] = PBMC 1 × 10^5/well, no T2 cells, 3 μg/ml
[6] = PBMC at 1 × 10^5/well, T2 cells at 1 × 10^5/well, 3 μg/ml
[7] = PBMC, NO T2 CELLS, paraphenylenediamine 10 μg/ml
[8] = PBMC + T2 CELLS (mitomycin C treated), paraphenylenediamine 10 μg/ml
[9] = PBMC at 1 × 10^5/well, T2 cells at 5 × 10^4/well, 3 μg/ml
[10] = T-cells 30% (6,000R), non-T cells 70%
[11] = T-cells 70%, non-T cells 30% (6,000R)

CCCCCCCCCCCCOS(=O)(=O)[O-].[Na+] [SDS, sodium dodecyl sulfate]
donor PBMC that responded, FIG. 2 [1, 4]: none | response of PBMC, FIG. 4 [2]: negative response | induction of a response of naive human T-lymphocytes in the culture system ([2]; culture with accessory T2 cells): did not induce a response

Oc1ccccc1O [catechol]
response of PBMC, FIG. 4 [2]: positive response

Nc1ccc(O)cc1 [p-aminophenol]
response of PBMC, FIG. 4 [2]: positive response

Nc1ccc(N)cc1 [paraphenylenediamine]
MEAN dpm (3H-thymidine uptake of 6 replicate wells) [1, 5]: 2869 dpm | S.I. (Stimulation index: response to antigen/response to media) [1, 5]: 0.96 | MEAN dpm (3H-thymidine uptake of 6 replicate wells) [1, 6]: 7856 dpm | S.I. (Stimulation index: response to antigen/response to media) [1, 6]: 1.12 | donor PBMC that responded, FIG. 3 ([1]; PBMC from 6 donors, 6 days with mitomycin C treated T2 cells): 3/6 | MEAN (3H-thymidine uptake of 6 replicate wells) [1, 7]: 3054 | S.I. (Stimulation index: response to antigen/response to media) [1, 7]: 1.03^ | response of naive donor PBMC to antigen ([1]; absence of T2 cells, paraphenylenediamine 3 μg/ml, HIV gp160 P18 peptide 10 μg/ml): no response | MEAN (3H-thymidine uptake of 6 replicate wells) [2, 8]: 11973 | S.I. (Stimulation index: response to antigen/response to media) [2, 8]: 2.09^e | response of naive donor PBMC to antigen ([2]; PBMC admixed with T2 cells at a ratio of 2:1, paraphenylenediamine 3 μg/ml, HIV gp160 P18 peptide 10 μg/ml): statistically significant response | MEAN dpm (3H-thymidine uptake of 6 replicate wells) [2, 9]: 6935 dpm | S.I. (Stimulation index: response to antigen/response to media) [2, 9]: 1.97^c | donor PBMC that responded, FIG. 2 [2, 4]: 3/4 and 3 | response of PBMC (3H-thymidine uptake), FIG. 1 ([2]; PBMC from 4 donors, presence or absence of mitomycin C treated T2 cells, 3 μg/ml, 6 days): Only in the presence of T2 cells was there a response | response of PBMC, FIG. 4 [2]: positive response | MEAN/SEM (3H-thymidine uptake) [3, 10]: 3096/446 | S.I. [3, 10]: 0.57^ | MEAN/SEM (3H-thymidine uptake) [3, 11]: 50220/2643 | S.I. [3, 11]: 1.94^e | MEAN/SEM (3H-thymidine uptake) ([3]; T-cells YES, non-T cells NO): 2263/317 | S.I. ([3]; T-cells YES, non-T cells NO): 0.67^ | response to paraphenylenediamine ([3]; T-cells admixed with T2 cells in the absence of non-T cells): no response | response to paraphenylenediamine ([3]; group where the T-cells had been irradiated (6,000R), mitomycin C treated T2 cells): no response | response to paraphenylenediamine ([3]; groups with non-irradiated T-cells, mitomycin C treated T2 cells): only detected in the groups with non-irradiated T-cells

Reference: patent US6713250B1, “Identification of human allergens and T-lymphocyte antigens in vitro” (The Research Foundation of State University of New York, priority 1997, dated 2004)
